# According to article PMC7917936, “Synthesis and Self-Assembly Properties of Bola-Amphiphilic Glycosylated Lipopeptide-Type Supramolecular Hydrogels Showing Colour Changes Along with Gel–Sol Transition” (International Journal of Molecular Sciences, 2021):
# Test: Measurement of the gel–sol transition temperature (Tgel), vial inversion method
# Assay type: physicochemical
# Conditions: hydrogel at CGC (0.19 wt%), 200 mM HEPES–NaOH buffer (pH 8.0), oil bath 25 to 85 °C, 1 °C/step, 1 min per step
# Procedure: The gel–sol phase transition behaviour of the βGal–AAC–C6–F3 hydrogel (0.19 wt% (CGC) in 200 mM HEPES–NaOH buffer (pH 8.0)) was determined using the vial inversion method. The inverted gel in the vial was placed in an oil bath, which was heated from 25 °C to 85 °C, at a rate of 1 °C/step. The vial was immersed at each temperature for 1 min to equilibrate. The temperature, at which the sample completely dissolved, was defined as the Tgel value of the gel.
smiles,measurement,value
O=C(CCCCCCN1C(=O)C(Cl)=C(Nc2ccc(O[C@@H]3O[C@H](CO)[C@H](O)[C@H](O)[C@H]3O)cc2)C1=O)N[C@@H](Cc1ccccc1)C(=O)N[C@@H](Cc1ccccc1)C(=O)N[C@@H](Cc1ccccc1)C(=O)O [βGal–AAC–C6–F3],Tgel (gel-to-sol phase transition temperature),78 °C
